Experimental data as given in patent US7192981B2, “3,4-dihydroxyhydrocinnamic acid derivative” (Bionutrigen Co., Ltd., priority 2005, dated 2007).

Tests used:
IRS-1 = assay: Phosphorylation of IRS-1 in adipocytes, immunoprecipitation and western blot; assay type: cell-based; details: SD rat adipocytes, DHH105 2 h, vs untreated control
Description: (§1) Adipocytes treated with DHH105 for 2 h or insulin for 10 min were homogenized in 5 ml lysis buffer (20 mM Tris, pH 7.4, 1% SDS, 10% glycerol, 150 mM NaCl, 2 mM EDTA, 20 mM NaF, 1 mM NaVO4, 2 mM sodium pyrophosphate, protease inhibitor cocktail, and phosphatase inhibitor cocktail) with a teflon pestle (15 strokes). Homogenized adipocytes were sonicated for 3 min and solubilized for 30 min. The homogenate was centrifuged at 3,000 g for 10 min at 4° C. The protein concentration of the lysate was determined by the Bradford method. After dilution (1 μg/μl protein concentration), the lysates were incubated with anti-insulin receptor-β (IR-β) antibody (Upstate Biotech, Charlottesville, Va.) or anti-IRS-1 antibody (Upstate Biotech) overnight at 4° C. Protein A Sepharose beads (100 μl, Amersham Pharmacia Biotech) were added and the mixture was gently rocked for 2 h at 4° C. […] The membranes were washed and the immunoreactive proteins were detected with an enhanced chemoluminescence western blot detection kit (Amersham Pharmacia Biotech). To examine whether DHH105 treatment increases autophosphorylation of the insulin receptor and its tyrosine kinase activity, the phosphorylation of IR-β and IRS-1 were measured by immunoprecipitation and western blot in DHH105-treated adipocytes from SD rats. […]

IR-β = target: T1, IR-β (Rattus norvegicus, UniProt P15127); assay: Phosphorylation of IR-β in adipocytes, immunoprecipitation and western blot; assay type: cell-based; details: SD rat adipocytes, DHH105 2 h, vs untreated control
T1 construct: DHH105-treated adipocytes from SD rats; endogenous in cells; host or cells: adipocytes from SD rats
Description: as §1

[1] = test system: STZ-induced diabetic C57BL/6 mice; assay: Blood glucose and glucose tolerance test in STZ-induced diabetic mice; assay type: in vivo, mouse; details: 150 mg/kg i.p. daily, at 2 weeks after treatment
Excerpt: Male C57BL/6 and C57BL/6 ob/ob mice were purchased from The Jackson Laboratory (Bar Harbor, Me.), and Sprague-Dawley (SD) rats were purchased from Charles River Laboratories (Wilmington, Mass.). The animals were maintained and bred under specific pathogen-free conditions and provided with sterile food and water ad libitum at the Animal Resources Centre, Faculty of Medicine, University of Calgary. The use and care of the animals used in this study were approved by the Animal Care Committee, Faculty of Medicine, University of Calgary.
DHH105 was dissolved in DMSO and emulsified in olive oil (1:50 v/v). DHH105, at a dose of 150 mg/kg body weight (b.w.) in 100 μl, was injected intraperitoneally (i.p.) every day into diabetic ob/ob mice (blood glucose level>230 mg/dl) and STZ-treated diabetic C57BL/6 mice (blood glucose level>300 mg/dl). Control mice received the same amount of olive oil without DHH105. Blood glucose levels were measured with a glucometer (One Touch Ultra, Lifescan, Milpitas, Calif.) every morning between 9:00–10:00 a.m. just before injection of DHH105.
To determine whether treatment with DHH105 can decrease the blood glucose level in STZ-induced diabetic C57BL/6 mice (blood glucose levels>300 mg/dl), mice were treated with DHH105 (150 mg/kd) daily for 2 weeks. […] Blood glucose levels were measured at 0, 15, 30, 60, and 120 min after glucose injection.

PI3-kinase = PI3-kinase assay in adipocyte lysate; assay type: cell-based, rat; details: adipocytes, 500 μM, 2 h
Description: Phosphatidylinositide (PI) in DMSO (1 mg/ml) was mixed with an equal volume of buffer A (10 mM HEPES, 100 mM NaCl, 1 mM EGTA, 0.03% NP-40, pH 7.0) and then 10 μl was mixed with an equal volume of buffer B (500 μM [γ-^32P] ATP (10 μCi; Amersham Pharmacia Biotech), 25 mM MgCl2, 15 mM 2-(N-morpholine)ethansulfonic acid, pH 6.8). This mixture was added to 30 μl of adipocyte lysate and incubated for 5 min at room temperature. The kinase reaction was stopped by adding 80 μl of 1 N HCl. A mixture of chloroform and ethanol (1:1, 160 μl) was added to the reaction mixture followed by centrifugation at full speed in a microcentrifuge for 2 min, and 40 μl of the organic phase was extracted. The organic phase was spotted on aluminum-backed silica gel 60 thin layer chromatography (TLC) plates that were pre-soaked in developing solvent (chloroform:methanol:2.2 M NH4OH, 9:7:2), run for 3 h in a TLC chamber with the developing solvent, and air-dried. The amount of phosphoinositides was detected by autoradiography.
In FIG. 7A, the intensity of the PIP3 band was normalized with that of PI, and the relative amount of PIP3 was calculated by (normalized band intensity of sample)/(normalized band intensity of control) (lower panel). Data are means±SEM of three independent experiments.

T1 sequence (P15127 764-1383 limits assumed): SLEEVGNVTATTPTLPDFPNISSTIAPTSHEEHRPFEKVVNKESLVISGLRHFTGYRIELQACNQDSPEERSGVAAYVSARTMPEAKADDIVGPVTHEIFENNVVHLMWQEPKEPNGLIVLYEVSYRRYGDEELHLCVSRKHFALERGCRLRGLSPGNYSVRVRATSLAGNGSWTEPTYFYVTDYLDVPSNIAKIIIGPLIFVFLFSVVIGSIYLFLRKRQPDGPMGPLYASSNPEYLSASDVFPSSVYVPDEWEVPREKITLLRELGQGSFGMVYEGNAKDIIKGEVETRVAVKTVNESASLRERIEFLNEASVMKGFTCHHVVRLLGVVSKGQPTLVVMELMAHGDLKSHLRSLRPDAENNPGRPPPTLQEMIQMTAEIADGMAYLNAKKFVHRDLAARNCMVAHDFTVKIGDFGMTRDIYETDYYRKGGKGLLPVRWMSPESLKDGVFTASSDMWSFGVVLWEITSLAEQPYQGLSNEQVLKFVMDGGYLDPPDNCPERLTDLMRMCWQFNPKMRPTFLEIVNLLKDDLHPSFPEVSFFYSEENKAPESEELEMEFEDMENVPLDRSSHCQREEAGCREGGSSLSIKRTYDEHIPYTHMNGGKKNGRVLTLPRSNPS
T1 sequence (P15127 27-759 limits assumed): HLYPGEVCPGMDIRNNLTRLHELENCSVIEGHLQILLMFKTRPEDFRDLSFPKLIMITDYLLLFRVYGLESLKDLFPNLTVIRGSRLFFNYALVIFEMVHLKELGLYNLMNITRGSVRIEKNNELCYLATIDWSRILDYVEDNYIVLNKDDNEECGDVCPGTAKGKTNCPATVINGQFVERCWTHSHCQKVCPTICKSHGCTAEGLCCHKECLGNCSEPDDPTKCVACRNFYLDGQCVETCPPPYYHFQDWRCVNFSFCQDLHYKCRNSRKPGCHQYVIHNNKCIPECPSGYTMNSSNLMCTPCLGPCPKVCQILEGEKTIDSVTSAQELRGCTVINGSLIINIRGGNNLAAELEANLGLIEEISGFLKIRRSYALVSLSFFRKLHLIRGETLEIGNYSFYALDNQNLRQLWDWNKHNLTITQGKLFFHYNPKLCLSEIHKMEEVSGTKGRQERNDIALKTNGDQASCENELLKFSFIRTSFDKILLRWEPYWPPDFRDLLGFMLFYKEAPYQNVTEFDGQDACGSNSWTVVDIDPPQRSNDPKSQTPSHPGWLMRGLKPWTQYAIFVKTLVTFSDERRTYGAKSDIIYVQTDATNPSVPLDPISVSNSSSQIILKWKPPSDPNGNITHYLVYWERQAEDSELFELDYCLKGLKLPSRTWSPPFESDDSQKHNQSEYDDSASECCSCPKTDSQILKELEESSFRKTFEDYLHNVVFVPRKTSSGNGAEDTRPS

## O=C(CCc1ccc(O)c(O)c1)OCc1cccc2ccccc12 [DHH105, 3,4-dihydroxyhydrocinnamic acid naphthalene methyl ester]
IRS-1
  phosphorylation of IRS-1: increased
IR-β
  phosphorylation of IR-β: increased
[1]
  blood glucose levels: significantly decreased
PI3-kinase
  PI3-kinase activity (conversion of PI to PIP3): significantly increased
